Results reported in US9365574B2, “Soluble guanylate cyclase activators” (Merck Sharp & Dohme Corp., priority 2010, dated 2016).

Test system: Spontaneously hypertensive rats (SHR)
Test: Acute Efficacy in Spontaneously Hypertensive Rats (SHR), telemetry blood pressure
Format: in vivo, rat
Text: Acute Efficacy in Spontaneously Hypertensive Rats (SHR)
Spontaneously hypertensive rats (SHR, male, Charles River) were implanted with DSI TA11PA-C40 telemetry device (Data Sciences, Inc., St. Paul, Minn.) under isoflurane or ketamine/metomidine anesthesia. The telemetry unit catheter was inserted into the descending aorta via the femoral artery and the telemetry device was implanted subcutaneously in the left flank area. Animals were allowed to recover from surgery for 14 days before the start of any studies. Blood pressure, heart rate, and activity signals from conscious, freely moving rats were recorded continuously for 30 seconds every 10 minutes. On the day prior to administration of compound, a single oral dose of vehicle (10% transcutol/20% Cremophor/70% water) was administered to all animals to establish baseline control data. The blood pressure lowering efficacy of compound (PO) or vehicle was evaluated following a single oral gavage. Data were collected as hourly averages, and changes in blood pressure were calculated by subtracting control baseline data on an hourly basis. Animals were maintained on normal diet with a 12 hour light-dark cycle.
Maximum peak decreases of systolic blood pressure (SBP) in SHR at a particular P.O. dose (mpk milligrams per kilogram) for the following representative compounds are provided.

Row | SMILES | Maximum peak decrease of systolic blood pressure (SBP) in SHR, Category (single oral dose 0.3 mpk P.O.) | other results
1 | COc1ccc2c(-c3nc(N)c4c(n3)NC(=O)C4(C)C(=O)NC3CC3)nn(CCC(F)(F)C(F)(F)F)c2n1 (stereo not shown) [Example 178, 4-Amino-N-Cyclopropyl-2-(6-Methoxy-1-(3,3,4,4,4-Pentafluorobutyl)-1H-Pyrazolo[3,4-B]Pyridin-3-yl)-5-Methyl-6-Oxo-6,7-Dihydro-5H-Pyrrolo[2,3-D]Pyrimidine-5-Carboxamide] |  | Maximum peak decrease of systolic blood pressure (SBP) in SHR, Category (single oral dose 0.1 mpk P.O.): A (Category A=SBP in SHRs<25 mmHg)
2 | Cc1ccc2c(-c3nc(N)c4c(n3)NC(=O)C4(C)C(=O)NC3CC3)nn(CCC(F)(F)C(F)(F)F)c2n1 (stereo not shown) [Example 179, 4-Amino-N-Cyclopropyl-5-Methyl-2-(6-Methyl-1-(3,3,4,4,4-Pentafluorobutyl)-1H-Pyrazolo[3,4-B]Pyridin-3-yl)-6-Oxo-6,7-Dihydro-5H-Pyrrolo[2,3-D]Pyrimidine-5-Carboxamide] |  | Maximum peak decrease of systolic blood pressure (SBP) in SHR, Category (single oral dose 0.1 mpk P.O.): B (Category B=SBP in SHRs 25-40 mmHg)
3 | CC1(c2cn(CC3CC3)nn2)C(=O)Nc2nc(-c3nn(CCC(F)(F)F)c4ncccc34)nc(N)c21 (stereo not shown) [Example 180, 4-Amino-5-[1-(Cyclopropylmethyl)-1H-1,2,3-Triazol-4-yl]-5-Methyl-2-[1-(3,3,3-Trifluoropropyl)-1H-Pyrazolo[3,4-B]Pyridin-3-yl]-5,7-Dihydro-6H-Pyrrolo[2,3-D]Pyrimidin-6-One] | A (Category A=SBP in SHRs<25 mmHg) | Maximum SBP reduction (dose 0.3 mpk): 18 ± 5 mmHg
4 | CC1(C(=O)NC2CC2)C(=O)Nc2nc(-c3nn(CCC(F)(F)F)c4ncccc34)nc(N)c21 (stereo not shown) [Example 181, 4-Amino-N-Cyclopropyl-5-Methyl-6-Oxo-2-[1-(3,3,3-Trifluoropropyl)-1H-Pyrazolo[3,4-B]Pyridin-3-yl]-6,7-Dihydro-5H-Pyrrolo[2,3-D]Pyrimidine-5-Carboxamide] | B (Category B=SBP in SHRs 25-40 mmHg) | Maximum SBP reduction (dose 0.3 mpk): 49 ± 2 mmHg
5 | CC1(C(=O)Nc2cccnc2)C(=O)Nc2nc(-c3nn(CCC(F)(F)F)c4ncccc34)nc(N)c21 (stereo not shown) [Example 182, 4-Amino-5-Methyl-6-Oxo-N-(Pyridin-3-yl)-2-[1-(3,3,3-Trifluoropropyl)-1H-Pyrazolo[3,4-B]Pyridin-3-yl]-6,7-Dihydro-5H-Pyrrolo[2,3-D]Pyrimidine-5-Carboxamide] |  | Maximum SBP reduction (dose 1.0 mpk): 46 ± 11 mmHg; Maximum peak decrease of systolic blood pressure (SBP) in SHR, Category (single oral dose 1 mpk P.O.): B (Category B=SBP in SHRs 25-40 mmHg)
6 | CC1(C(=O)NC2CC2)C(=O)Nc2nc(-c3nn(CCC(F)(F)F)c4nc(Cl)ccc34)nc(N)c21 (stereo not shown) [Example 183, 4-Amino-2-[6-Chloro-1-(3,3,3-Trifluoropropyl)-1H-Pyrazolo[3,4-B]Pyridin-3-yl]-N-Cyclopropyl-5-Methyl-6-Oxo-6,7-Dihydro-5H-Pyrrolo[2,3-D]Pyrimidine-5-Carboxamide] | C (Category C=SBP in SHRs>40 mmHg) | 
7 | Cc1ccc2c(-c3nc(N)c4c(n3)NC(=O)C4(C)C(=O)NC3CC3)nn(CCC(F)(F)F)c2n1 (stereo not shown) [Example 184, 4-Amino-N-Cyclopropyll-5-Methyl-2-[6-Methyl-1-(3,3,3-Trifluoropropyl)-1H-Pyrazolo[3,4-B]Pyridin-3-yl]-6-Oxo-6,7-Dihydro-5H-Pyrrolo[2,3-D]Pyrimidine-5-Carboxamide] | A (Category A=SBP in SHRs<25 mmHg) | Maximum SBP reduction (dose 0.3 mpk): 19 ± 5 mmHg
8 | COc1ccc2c(-c3nc(N)c4c(n3)NC(=O)C4(C)C(=O)NC3CC3)nn(CCC(F)(F)F)c2n1 (stereo not shown) [Example 185, 4-Amino-N-Cyclopropyl-2-[6-Methoxy-1-(3,3,3-Trifluoropropyl)-1H-Pyrazolo[3,4-B]Pyridin-3-yl]-5-Methyl-6-Oxo-6,7-Dihydro-5H-Pyrrolo[2,3-D]Pyrimidine-5-Carboxamide] |  | Maximum SBP reduction (dose 1.0 mpk): 43 ± 7 mmHg; Maximum peak decrease of systolic blood pressure (SBP) in SHR, Category (single oral dose 1 mpk P.O.): C (Category C=SBP in SHRs>40 mmHg)
9 | CNc1nc(-c2nn(CCC(F)(F)C(F)(F)F)c3ncccc23)nc2c1C(C)(c1ccccc1)C(=O)N2 (stereo not shown) [Example 186, 5-Methyl-4-(Methylamino)-2-[1-(3,3,4,4,4-Pentafluorobutyl)-1H-Pyrazolo[3,4-B]Pyridin-3-yl]-5-Phenyl-5,7-Dihydro-6H-Pyrrolo[2,3-D]Pyrimidin-6-One] | B (Category B=SBP in SHRs 25-40 mmHg) | 
10 | CNc1nc(-c2nn(CCC(F)(F)C(F)(F)F)c3ncccc23)nc2c1C(C)(C(=O)NC1CC1)C(=O)N2 (stereo not shown) [Example 187, N-Cyclopropyl-5-Methyl-4-(Methylamino)-6-Oxo-2-[1-(3,3,4,4,4-Pentafluorobutyl)-1H-Pyrazolo[3,4-B]Pyridin-3-yl]-6,7-Dihydro-5H-Pyrrolo[2,3-D]Pyrimidine-5-Carboxamide] | B (Category B=SBP in SHRs 25-40 mmHg) | 
11 | CNc1nc(-c2nn(CCC(F)(F)C(F)(F)F)c3cc(Cl)ccc23)nc2c1C(C)(c1ccccc1)C(=O)N2 (stereo not shown) [Example 188, 2-[6-Chloro-1-(3,3,4,4,4-Pentafluorobutyl)-1H-Indazol-3-yl]-5-Methyl-4-(Methylamino)-5-Phenyl-5,7-Dihydro-6H-Pyrrolo[2,3-D]Pyrimidin-6-One] | B (Category B=SBP in SHRs 25-40 mmHg) | 
12 | CNc1nc(-c2nn(CCC(F)(F)C(F)(F)F)c3ncccc23)nc2c1C(C)(c1nnc(C)o1)C(=O)N2 (stereo not shown) [Example 189, 5-Methyl-4-(Methylamino)-5-(5-Methyl-1,3,4-Oxadiazol-2-yl)-2-[1-(3,3,4,4,4-Pentafluorobutyl)-1H-Pyrazolo [3,4-B]Pyridin-3-yl]-5,7-Dihydro-6H-Pyrrolo[2,3-D]Pyrimidin-6-One] | C (Category C=SBP in SHRs>40 mmHg) | 
13 | CC1(c2ccccc2)C(=O)Nc2nc(-c3nc(CCC(F)(F)C(F)(F)F)c4ncccn34)nc(N)c21 (stereo not shown) [Example 191, 4-Amino-5-Methyl-2-[8-(3,3,4,4,4-Pentafluorobutyl)Imidazo[1,5-A]Pyrimidin-6-yl]-5-Phenyl-5,7-Dihydro-6H-Pyrrolo[2,3-D]Pyrimidin-6-One] | B (Category B=SBP in SHRs 25-40 mmHg) | 
14 | CC1(C(N)=O)C(=O)Nc2nc(-c3nn(CCC(F)(F)C(F)(F)F)c4cc(F)ccc34)nc(N)c21 (stereo not shown) [Example 192, 4-amino-2-[6-fluoro-1-(3,3,4,4,4-pentafluorobutyl)-1H-indazol-3-yl]-5-methyl-6-oxo-6,7-dihydro-5H-pyrrolo[2,3-d]pyrimidine-5-carboxamide] | B (Category B=SBP in SHRs 25-40 mmHg) | 
15 | CC1(C(N)=O)C(=O)Nc2nc(-c3nn(CCC(F)(F)C(F)(F)F)c4ccccc34)nc(N)c21 (stereo not shown) [Example 193, 4-amino-5-methyl-6-oxo-2-[1-(3,3,4,4,4-pentafluorobutyl)-1H-indazol-3-yl]-6,7-dihydro-5H-pyrrolo[2,3-d]pyrimidine-5-carboxamide] | C (Category C=SBP in SHRs>40 mmHg) | 
16 | CC1(C(=O)NC2CC2)C(=O)Nc2nc(-c3nn(CCC(F)(F)C(F)(F)F)c4ccccc34)nc(N)c21 (stereo not shown) [Example 194, 4-amino-N-cyclopropyl-5-methyl-6-oxo-2-[1-(3,3,4,4,4-pentafluorobutyl)-1H-indazol-3-yl]-6,7-dihydro-5H-pyrrolo[2,3-d]pyrimidine-5-carboxamide] | C (Category C=SBP in SHRs>40 mmHg) | 
17 | CC1(C(=O)NC2CC2)C(=O)Nc2nc(-c3nn(CCC(F)(F)C(F)(F)F)c4cc(F)ccc34)nc(N)c21 (stereo not shown) [Example 195, 4-amino-N-cyclopropyl-2-[6-fluoro-1-(3,3,4,4,4-pentafluorobutyl)-1H-indazol-3-yl]-5-methyl-6-oxo-6,7-dihydro-5H-pyrrolo[2,3-d]pyrimidine-5-carboxamide] | C (Category C=SBP in SHRs>40 mmHg) | 
18 | CC1(C(=O)NC2CCC2)C(=O)Nc2nc(-c3nn(CCC(F)(F)C(F)(F)F)c4cc(Cl)ccc34)nc(N)c21 (stereo not shown) [Example 196, 4-amino-2-[6-chloro-1-(3,3,4,4,4-pentafluorobutyl)-1H-indazol-3-yl]-N-cyclobutyl-5-methyl-6-oxo-6,7-difluoro-5H-pyrrolo[2,3-d]pyrimidine-5-carboxamide] | B (Category B=SBP in SHRs 25-40 mmHg) | 
19 | CC(C)NC(=O)C1(C)C(=O)Nc2nc(-c3nn(CCC(F)(F)C(F)(F)F)c4ncccc34)nc(N)c21 (stereo not shown) [Example 197, 4-amino-5-methyl-N-(1-methylethyl)-6-oxo-2-[1-(3,3,4,4,4-pentafluorobutyl)-1H-pyrazolo[3,4-b]pyridin-3-yl]-6,7-dihydro-5H-pyrrolo[2,3-d]pyrimidine-5-carboxamide] | B (Category B=SBP in SHRs 25-40 mmHg) | 
20 | Cc1nnc(C2(C)C(=O)Nc3nc(-c4nn(CCC(F)(F)F)c5cc(Cl)ccc45)nc(N)c32)o1 (stereo not shown) [Example 198, 4-amino-2-[6-chloro-1-(3,3,3-trifluoropropyl)-1H-indazol-3-yl]-5-methyl-5-(5-methyl-1,3,4-oxadiazol-2-yl)-5,7-dihydro-6H-pyrrolo[2,3-d]pyrimidin-6-one] | B (Category B=SBP in SHRs 25-40 mmHg) | 
